Data from ChEMBL document CHEMBL3259561, “Search for novel histone deacetylase inhibitors. Part II: design and synthesis of novel isoferulic acid derivatives” (Bioorg Med Chem, 2014).

Columns and labels:
Histone deacetylase = assay: Inhibition of HDAC in human HeLa cell nuclear extract using acetylated lysine as substrate after 30 mins by spectrophotometric analysis; type: protein assay
HeLa = assay: cells; type: functional, cell-based; details: Homo sapiens, 48 h
Description: Growth inhibition of human HeLa cells after 48 hrs by MTT assay

MDA-MB-231 = assay: cells; type: functional, cell-based; details: Homo sapiens, MDA-MB-231, 48 h
Description: Growth inhibition of human MDA-MB-231 cells after 48 hrs by MTT assay

SMILES	IC50 (Histone deacetylase) [µM]	IC50 (HeLa) [µM]	IC50 (MDA-MB-231) [µM]
COc1ccc(/C=C/C(=O)Nc2ccccc2N)cc1OCC(=O)Nc1cccc(F)c1	24.01	–	–
COc1ccc(/C=C/C(=O)Nc2ccccc2N)cc1OCC(=O)Nc1ccccc1F	15.6	20.5	15.5
COc1ccc(/C=C/C(=O)NO)cc1OCC(=O)Nc1ccc(Br)cc1	0.73	5.39	5.87
COc1ccc(/C=C/C(=O)NO)cc1OCC(=O)Nc1ccccc1F	0.57	3.91	15.6
COc1ccc(/C=C/C(=O)Nc2ccccc2N)cc1OCC(=O)Nc1ccc(F)c(Cl)c1	66.52	–	–
COc1ccc(/C=C/C(=O)Nc2ccc(C)cc2N)cc1OCC(=O)Nc1ccc(Br)cc1	58.24	–	–
COc1ccc(NC(=O)COc2cc(/C=C/C(=O)NO)ccc2OC)cc1	0.94	4.87	3.81
COc1ccc(/C=C/C(=O)NO)cc1OCC(=O)Nc1ccc(Cl)c(Cl)c1	1.37	13.3	1.9
COc1ccc(/C=C/C(=O)Nc2ccc(C)cc2N)cc1OCC(=O)Nc1ccc(Cl)c(Cl)c1	> 200	–	–
COc1ccc(/C=C/C(=O)NO)cc1OCC(=O)Nc1cccc(C(F)(F)F)c1	2.96	–	–
COc1ccc(NC(=O)COc2cc(/C=C/C(=O)Nc3ccccc3N)ccc2OC)cc1	49.3	–	–
COc1ccc(/C=C/C(=O)NO)cc1OCC(=O)Nc1cc(C(F)(F)F)cc(C(F)(F)F)c1	4.91	–	–
COc1ccc(/C=C/C(=O)Nc2ccc(C)cc2N)cc1OCC(=O)Nc1cc(C(F)(F)F)cc(C(F)(F)F)c1	56.71	–	–
COc1ccc(/C=C/C(=O)NO)cc1OCC(=O)Nc1ccc(F)c(Cl)c1	5.82	–	–

Second part, the compound after the results:

IC50 (Histone deacetylase) [µM]	IC50 (HeLa) [µM]	IC50 (MDA-MB-231) [µM]	SMILES
2.81	6.48	3.41	COc1ccc(/C=C/C(=O)NO)cc1OCC(=O)Nc1cccc(F)c1
> 200	–	–	COc1ccc(/C=C/C(=O)Nc2ccccc2N)cc1OCC(=O)Nc1ccc(Br)cc1
> 200	–	–	COc1ccc(/C=C/C(=O)Nc2ccccc2N)cc1OCC(=O)Nc1cc(Br)cc(C(F)(F)F)c1
71.02	–	–	COc1ccc(/C=C/C(=O)Nc2ccc(C)cc2N)cc1OCC(=O)Nc1cccc(F)c1
164.61	–	–	COc1ccc(NC(=O)COc2cc(/C=C/C(=O)Nc3ccc(C)cc3N)ccc2OC)cc1
> 200	–	–	COc1ccc(/C=C/C(=O)Nc2ccccc2N)cc1OCC(=O)Nc1ccc(Cl)c(Cl)c1
9.04	–	–	COc1ccc(/C=C/C(=O)NO)cc1OCC(=O)Nc1cc(Br)cc(C(F)(F)F)c1
> 200	–	–	COc1ccc(/C=C/C(=O)Nc2ccccc2N)cc1OCC(=O)Nc1cc(C(F)(F)F)cc(C(F)(F)F)c1
22.16	–	–	COc1ccc(/C=C/C(=O)Nc2ccccc2N)cc1OCC(=O)Nc1cccc(C(F)(F)F)c1
29.5	–	–	COc1ccc(/C=C/C(=O)Nc2ccc(C)cc2N)cc1OCC(=O)Nc1ccccc1F
124.67	–	–	COc1ccc(/C=C/C(=O)Nc2ccc(C)cc2N)cc1OCC(=O)Nc1cc(Br)cc(C(F)(F)F)c1
31.32	–	–	COc1ccc(/C=C/C(=O)Nc2ccc(C)cc2N)cc1OCC(=O)Nc1ccc(F)c(Cl)c1
> 200	–	–	COc1ccc(/C=C/C(=O)Nc2ccc(C)cc2N)cc1OCC(=O)Nc1cccc(C(F)(F)F)c1
